Results taken from patent US9296691B2, “Inhibitors of p75 receptor and their uses” (Horacio Uri Saragovi, priority 2010, dated 2016).

Legend:
[1] = target: T1, p75-Fc (Homo sapiens, UniProt P08138); experiment: Competitive ELISA, p75-Fc binding to immobilized NGF
T1 construct: purchased R&D
T1 sequence (P08138 29-250 limits assumed): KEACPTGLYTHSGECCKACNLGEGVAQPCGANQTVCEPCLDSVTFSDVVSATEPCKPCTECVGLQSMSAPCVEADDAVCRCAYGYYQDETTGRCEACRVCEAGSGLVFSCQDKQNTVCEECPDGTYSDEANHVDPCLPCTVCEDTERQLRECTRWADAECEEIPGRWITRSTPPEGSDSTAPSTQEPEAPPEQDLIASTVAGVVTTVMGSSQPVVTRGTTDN
Protocol: (§1) The effect of compounds I-B and LM-24 on the binding between NGF and p75 was tested in competitive ELISA assays, where the antagonists prevent soluble p75 from binding to immobilized NGF. The selectivity of antagonism was evaluated by lack of effect upon NGF-TrkA or lack of effect between NGF and anti-NGF monoclonal antibody (mAb) NGF30 interactions (FIG. 1A).
The compound LM-24 has been reported by others (Massa et al., 2006). Binding studies were carried out with all the compounds using I-B as reference.
(§2) Competitive ELISAs were performed as described (Saragovi et al., 1998). The procedure immobilized 50 ng/well NGF, or pro-NGF (Alomone Labs, Israel) onto polystyrene 96-well microtest plates, with washing and blocking with binding buffer (BB; phosphate buffered saline containing 0.5% bovine serum albumin). The following primary reagents in BB were added: recombinant chimeric p75-Fc or recombinant chimeric TrkA-Fc (R&D), or anti-NGF mAb NGF30 (Saragovi et al., 1998); each at 50 nM. The competitors I-B and the other test compounds (or control LM-24) were added at the indicated concentrations, and the plates were incubated for 45 minutes. After washing 3× in BB, HRP-conjugated secondary reagents (Sigma) were added for 30 min (goat anti-human Fc for p75-Fc and for TrkA-Fc; and goat anti-rat Ab for NGF30 mAb), and then wells were washed 3× in BB and 1× in PBS. Peroxidase activity was determined colorimetrically using the substrate TMB One Solution (Promega). The reaction was stopped with 0.5 N H2SO4 and the plates were read at 450 nm (Benchmark Plus, Bio-Rad). Assays were repeated n>4 times, with replicates of 4 wells each assay. […] Wells with no NGF immobilized but with all other reagents added were treated as background (<15% of maximal signals) and standardized to 0% binding.

[2] = target: T2, TrkA-Fc (Homo sapiens, UniProt P04629); experiment: Competitive ELISA, TrkA-Fc binding to immobilized NGF (selectivity control)
T2 construct: purchased R&D
T2 sequence (P04629 33-423 limits assumed): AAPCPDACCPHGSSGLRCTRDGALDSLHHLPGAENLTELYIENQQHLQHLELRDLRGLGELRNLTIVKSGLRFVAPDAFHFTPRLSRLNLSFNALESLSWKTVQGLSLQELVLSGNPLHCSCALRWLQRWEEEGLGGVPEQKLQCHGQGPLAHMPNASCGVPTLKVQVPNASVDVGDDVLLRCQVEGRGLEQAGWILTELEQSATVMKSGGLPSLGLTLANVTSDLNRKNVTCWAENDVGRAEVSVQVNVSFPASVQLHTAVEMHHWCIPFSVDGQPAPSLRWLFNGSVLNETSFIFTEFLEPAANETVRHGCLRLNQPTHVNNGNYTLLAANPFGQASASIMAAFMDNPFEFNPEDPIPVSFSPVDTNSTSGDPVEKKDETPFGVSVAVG
Protocol: as §1, §2

[3] = system: B104 cells; experiment: Pro-NTF killing assay (MTT), B104 cells; format: cell-based; conditions: pro-NTF 50 nM + I-B 20 μM, 72 hours
Protocol: The effect of I-B on the pro-apoptotic function of pro-NGF or pro-BDNF was tested in functional MTT assays measuring cell metabolism (FIG. 1B).
Cells (5,000 cells/well) were cultured in 96-well plates (Falcon, Lincoln Park, N.J.) in normal culture media (RPMI1640, Hepes, Glutamine, 5% serum). Wells were supplemented with NGF, BDNF, pro-NGF, or pro-BDNF (Alomone Labs) (50 nM final), in the presence or absence of I-B (20 μM final). Wells containing all culture conditions but no cells were used as blanks. The growth/survival profile of the cells was quantified using MTT (Sigma) 72 hours after plating. Optical density readings of MTT were done in a Benchmark Plus microplate Spectrophotometer (BioRad) at 595 nm with blanks subtracted.

[4] = system: α2M; experiment: Glaucoma model, retinal α2M by western blot; format: in vivo, rat; conditions: intravitreal injection at glaucoma day 14, measured 3 and 5 days later
Protocol: After 14-days of glaucoma eyes were injected intravitreally with p75NTR antagonists, and the levels of TNF-α and α2M were measured three days later (e.g. day 17 of glaucoma) and five days later (e.g. day 19 of glaucoma) (FIG. 3A).
Both retinas of each animal were detergent solubilized, and studied in independent gels standardized to loading control. The ratio of the glaucoma eye ±treatment versus the normal contralateral eye was calculated, and results were averaged ±sem, n=3 animals per group. In glaucoma, all drug treatments were done at day 14 of hypertension. In one group the retinas were harvested at day 17 of glaucoma (3 days after intraocular injection) and in the other group the retinas were harvested at day 19 of glaucoma (5 days after intraocular injection). Normal eyes treated with NGF-A were collected in the indicated days. After SDS-PAGE and western transfer, membranes were immunoblotted with rabbit polyclonal antibodies against TNF-α (Preprotech) or α2M (Santa Cruz) at a 1:3000 dilution. Goat anti-rabbit secondary antibodies conjugated to horseradish peroxidase (Sigma) were used at a 1:10,000 dilution. Loading was controlled with antibodies to β-actin (Sigma). For digital quantification, membranes were scanned and analyzed using ImageJ software.

[5] = competitive ELISA, FIG. 1A, compound at 30 μM

CC(C)NC(=O)N(C(=O)Cn1cnc2c1c(=O)n(C)c(=O)n2C)C(C)C [I-B, 1,3-Diisopropyl-1-[2-(1,3-dimethyl-2,6-dioxo-1,2,3,6-tetrahydro-purin-7-yl)-acetyl]-urea]
remaining activity at 30 µM ([1]; 0.75 h, binding to immobilized NGF, no cpd = 100%, p75-Fc 50 nM, as described for FIG. 1A (compounds 30 μM), below 100% indicates inhibition): 52% | effect on NGF-p75NTR interaction [1, 5]: antagonized NGF-p75NTR interactions selectively | TrkA-Fc binding AVERAGE ([2]; binding to immobilized NGF, no cpd = 100%, TrkA-Fc 50 nM, as described for FIG. 1A): 107% | effect on binding of TrkA to NGF [2, 5]: did not interfere | cell viability (MTT) in presence of pro-NGF or pro-BDNF [3]: prevented the loss of cell viability | α2M level in glaucomatous retina, fold-change versus normal retina [4]: time-dependent inhibition
